Assay results reported in patent US6319929A, “Suksdorfin analogs, compositions thereof, and methods for making and using thereof” (priority 1998, dated 2001).
Entries after “also recorded” stand apart in the source; their conditions may differ. Read-outs that look alike come from different tables or passages of the source.

What was measured:
[1] = tested on: HIV-1 replication in H9 cells; assay: Combination study of suksdorfin with AZT, ddI and ddC: HIV-1 replication in acutely infected H9 cells; format: cell-based, HIV-1 (IIIB)
Method: HIV Growth Inhibition Assay: The T cell line, H9, and the promonocytic cell line, U937, were maintained separately in continuous culture with complete medium (RPMI 1640 and […] fetal calf serum (FCS) at 5% CO2 and 37° C. Cell lines were used in experiments only when in log phase of growth; whereas, uninfected peripheral blood mononuclear cells (PBMCs) were first stimulated with PHA (1 μg/ml) for 3 days. All cell targets were incubated with HIV-1 (IIIB isolate, TCID50 10 ^4 IU/mi, at a multiplicity of infection of 0.1-0.01 IU/cell) for 1 hour at 37° C. and 5% CO2. The cell lines and PBMCs were washed thoroughly to remove unabsorbed virions and resuspended at 4×10^5 cells/ml in complete medium or complete medium with 10% v/v interleukin […] IL-2, respectively. Aliquots ( ml) were placed in wells of 24-well culture plates containing an equal volume of test compound (diluted in the appropriate culture medium). After incubation for 4 days at 37° C., cell density of uninfected cultures was determined by counting cells in a Coulter counter to assess toxicity of the test compound. A p24 antigen ELISA assay was used to determine the level of virus released in the medium of the HIV-infected cultures. The p24 antigen assay uses a HIV-1 anti-p24 specific monoclonal antibody as the capture antibody coated-on 96-well plates. Following a sample incubation period, rabbit serum containing antibodies for HIV-1 p24 is used to tag any p24 "captured" onto the microtiter well surface. […] The cut-off for the p24 ELISA assay is 12. pg/ml. P24 in the culture medium was quantitated against a standard curve containing known amounts of p24. […] Both the EC50 and IC50 values were calculated by plotting drug concentration versus percent inhibition, and then identifying a 50% inhibition value from the graph.
Combination Study: The experimental design is identical to the growth inhibition assay except that various concentrations of AZT, ddI or ddC were also added to cultures of acutely HIV-1 infected H9 cells that either have or have no received different concentrations of suksdorfin. The concentrations of AZT, ddI and ddC were 5 ten-fold dilutions starting at 1 μg/ml. [drawing 104] [drawing 105]

uninfected H9 cells [2] = assay: Toxicity to uninfected H9 cells (cell growth); format: cell-based; conditions: Homo sapiens
Method: HIV inhibition assay. The HIV inhibition was measured as described herein. Briefly, H9 cells, a T cell line, (3.5×10^6 cells/ml) were incubated in the presence or absence of HIV-1 (IIIB strain, 0.01-0.1 TCID50 /cell) for 1 hour at 37° C. Cells were washed thoroughly and resuspended at a final concentration of 2×10^5 cells/ml in the presence or absence of compound. After incubation for 3-4 days at 37° C., the cell density of uninfected cultures was determined by cell count to assess toxicity of the drug. An aliquot of each cell-free supernatant was assayed by p24 antigen ELISA to quantitate the amount of HIV-1 present in the infected cultures. Test compounds were considered to be active at a particular concentration if p24 antigen levels were less than 70% of infected, untreated controls and were nontoxic to uninfected H9 cells.
HIV Growth Inhibition Assay: The T cell line, H9, and the promonocytic cell line, U937, were maintained separately in continuous culture with complete medium (RPMI 1640 and […] fetal calf serum (FCS) at 5% CO2 and 37° C. Cell lines were used in experiments only when in log phase of growth; whereas, uninfected peripheral blood mononuclear cells (PBMCs) were first stimulated with PHA (1 μg/ml) for 3 days. All cell targets were incubated with HIV-1 (IIIB isolate, TCID50 10 ^4 IU/mi, at a multiplicity of infection of 0.1-0.01 IU/cell) for 1 hour at 37° C. and 5% CO2. The cell lines and PBMCs were washed thoroughly to remove unabsorbed virions and resuspended at 4×10^5 cells/ml in complete medium or complete medium with 10% v/v interleukin […] IL-2, respectively. Aliquots ( ml) were placed in wells of 24-well culture plates containing an equal volume of test compound (diluted in the appropriate culture medium). After incubation for 4 days at 37° C., cell density of uninfected cultures was determined by counting cells in a Coulter counter to assess toxicity of the test compound. A p24 antigen ELISA assay was used to determine the level of virus released in the medium of the HIV-infected cultures. The p24 antigen assay uses a HIV-1 anti-p24 specific monoclonal antibody as the capture antibody coated-on 96-well plates. Following a sample incubation period, rabbit serum containing antibodies for HIV-1 p24 is used to tag any p24 "captured" onto the microtiter well surface. Peroxidase conjugated goat anti-rabbit serum is then used to tag HIV-1 p24 specific rabbit antibodies which have complexed with captured p24. […] The cut-off for the p24 ELISA assay is 12. pg/ml. P24 in the culture medium was quantitated against a standard curve containing known amounts of p24. The effective (EC50) and inhibitory (IC50) concentrations (for anti-HIV activity and cytotoxicity, respectively) were determined graphically. Both the EC50 and IC50 values were calculated by plotting drug concentration versus percent inhibition, and then identifying a 50% inhibition value from the graph.

uninfected H9 cells [3] = assay: Combination study of suksdorfin with AZT, ddI and ddC: toxicity to uninfected H9 cells; format: cell-based; conditions: for IC50: Homo sapiens
Method: Pharm. Asso. […] Aliquots ( ml) were placed in wells of 24-well culture plates containing an equal volume of test compound (diluted in the appropriate culture medium). After incubation for 4 days at 37° C., cell density of uninfected cultures was determined by counting cells in a Coulter counter to assess toxicity of the test compound. A p24 antigen ELISA assay was used to determine the level of virus released in the medium of the HIV-infected cultures. The p24 antigen assay uses a HIV-1 anti-p24 specific monoclonal antibody as the capture antibody coated-on 96-well plates. Following a sample incubation period, rabbit serum containing antibodies for HIV-1 p24 is used to tag any p24 "captured" onto the microtiter well surface. […] The cut-off for the p24 ELISA assay is 12. pg/ml. P24 in the culture medium was quantitated against a standard curve containing known amounts of p24. The effective (EC50) and inhibitory (IC50) concentrations (for anti-HIV activity and cytotoxicity, respectively) were determined graphically.
Combination Study: The experimental design is identical to the growth inhibition assay except that various concentrations of AZT, ddI or ddC were also added to cultures of acutely HIV-1 infected H9 cells that either have or have no received different concentrations of suksdorfin.

CC(=O)O[C@@H]1[C@H](OC(=O)CC(C)C)c2c(ccc3ccc(=O)oc23)OC1(C)C [Suksdorfin, suksdorfin]
synergy with AZT, ddI and ddC ([1]; H9): act synergistically with AZT, ddI and ddC | synergy with AZT, ddI and ddC ([1]; H9, listed as 1): potentiate the anti-HIV effects of three nucleosides; also recorded: synergistic effect against HIV replication | EC50 ([1]; Human immunodeficiency virus 1, H9, Table 5, combinations with 4 μg/ml suksdorfin, read-out: EC50): 2.8 µg/mL | IC50 ([1]; Human immunodeficiency virus 1, H9, Table 16, concentration which inhibits viral replication by 50%, combinations with 4 μg/ml suksdorfin, read-out: IC50 (μM)^b): 2.8 µg/mL | EC50 ([1]; Human immunodeficiency virus 1, H9, later value, read-out: EC50 (value after increase)): 1.5 to 2.8 µg/mL | inhibition at 4 µg/mL ([1]; Human immunodeficiency virus 1, 4 μg/ml suksdorfin, H9): 64% | IC50 (uninfected H9 cells [2]; H9, Table 14, concentration which inhibits uninfected cell growth by 50%, read-out: IC50 (μM)^a): > 52 µM | IC50 (uninfected H9 cells [2]; H9, Table 17, uninfected H9 cell growth, read-out: IC50): > 52 µM | IC50 (uninfected H9 cells [2]; H9, concentration which inhibits uninfected cell growth by 50%, read-out: IC50): > 52 µM | toxicity to H9 cells (uninfected H9 cells [3]; 20 μg/ml): toxic to H9 cells

Cc1cn([C@H]2C[C@H](N=[N+]=[N-])[C@@H](CO)O2)c(=O)[nH]c1=O [AZT, azidothymidine, reference compound]
EC50 ([1]; Human immunodeficiency virus 1, H9): 0.04 µg/mL | IC50 ([1]; Human immunodeficiency virus 1, H9, read-out: IC50 (μM)^b): 0.04 µg/mL | Therapeutic Index ([1]; Table 5, combinations with 4 μg/ml suksdorfin): > 25 | Therapeutic Index ([1]; Table 16, combinations with 4 μg/ml suksdorfin): > 25 | decrease of EC50 in presence of suksdorfin ([1]; with 4 μg/ml suksdorfin, H9): 400 fold | increase of TI value in presence of suksdorfin ([1]; with 4 μg/ml suksdorfin, H9): 400 fold | IC50 (uninfected H9 cells [2]; H9, Table 3, H9 lymphocytes): 2000 µM | IC50 (uninfected H9 cells [2]; H9, Table 17, uninfected H9 cell growth): 1880 µM | IC50 (uninfected H9 cells [3]; H9): > 1 µg/mL | IC50 (uninfected H9 cells [3]; H9, read-out: IC50 (μM)^a): > 1 µg/mL
